Values quoted from earlier work in US4361703A, “Para-amino(or nitro)phenyl N-acetylaminothioalkanoates” (priority 1977, dated 1982).

What was measured:
[1] = system: lethal and hepatotoxic effects of paracetamol overdosage; details: cited from earlier work
death and liver injury = details: cited from earlier work
mice = details: mouse, in vivo; cited from earlier work

| Compound | effect of methionine combined with paracetamol [1] | effect of methionine added to oral paracetamol dose (death and liver injury) | 48 hour survival (mice) |
| --- | --- | --- | --- |
| CSCC[C@H](N)C(=O)O [methionine] | greatly reducing the lethal and hepatotoxic effects of paracetamol overdosage | protects against death and liver injury |  |
| CC(=O)N[C@@H](CS)C(=O)O [N-acetylcysteine] |  |  | significantly improved 48 hour survival in mice |
